Experimental data as given in the METLIN SMRT retention time set (Domingo-Almenara et al. 2019).

test: gradient 5% acetonitrile 3 min, to 50% in 2 min, to 85% in 15 min, held 3 min, 100 µL/min; details: column: Zorbax Extend-C18 2.1 x 50 mm; eluents: water / acetonitrile, 0.1% formic acid
How it was run: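 Each retention time is based on an adduct peak selected computationally and verified by manual inspection. Measurements used HPLC–quadrupole time-of-flight mass spectrometry in positive and negative ionization mode on mixtures of ~100 pure standards. Chromatography ran on a Zorbax Extend-C18 column (2.1 × 50 mm, 1.8 μm) at 100 μL/min with water and acetonitrile, each containing 0.1% formic acid, and dead and dwell volumes of 40 μL and 900 μL.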

RP-LC retention time	Compound
605 s	c1ccc(N2CCN(Cc3csc4c3CCCC4)CC2)nc1
977 s	CC(C)NS(=O)(=O)c1ccc(Cl)c(-c2nnc(-c3ccccc3)o2)c1
591 s	COCCNC(=O)c1nc(N2CCSCC2)c2c(C)cc(C)nc2n1
763 s	COc1ccc(NC(=O)CCOc2ccccc2)cc1
1060 s	CCn1cc(C(=O)NCCCOC(C)C)c(S(=O)(=O)N2CCN(c3cccc(Cl)c3)CC2)n1
774 s	COc1ccc(-c2nnc(-c3ccccc3)o2)cc1S(=O)(=O)N1CCC(C(=O)O)CC1
629 s	CCc1noc(-c2cnc3nc(C)ccc3c2Nc2ccccc2OC)n1
695 s	O=C(NC1CCCCC1)C1CCCN(c2ccnc(-c3ccc(F)cc3)n2)C1 (stereo unspecified)
1100 s	CCCN1CCCCc2cc(C(=O)NCC(C)C)sc21
910 s	Cc1ccc(CN2C(=O)COc3ccc(C(=O)NC(C)(C)C)cc32)cc1
657 s	CS(=O)(=O)Nc1cccc(NC(=O)CN2CCN(c3ccc4c(c3)OCCO4)C2=O)c1
728 s	CC1=NOC(C)(CNS(=O)(=O)c2ccc(F)cc2)C1 (stereo unspecified)
765 s	Cc1[nH]c(C(=O)N2CCC(CC(=O)NCc3ccco3)CC2)c(C)c1C(=O)OC(C)C
726 s	Cc1cccc(NS(=O)(=O)c2c[nH]c3ncccc23)c1
631 s	O=C(NC1CCCC1)NC1CCN(C(=O)C2CC2)C1 (stereo unspecified)
550 s	CCNc1cc(N2CCCC(CCC(=O)NCCN3CCCCCC3)C2)ncn1 (stereo unspecified)
888 s	COc1cc(OC)c(NC(=O)NC2CCN(c3ccc(F)c(C)c3)C2=O)cc1Cl (stereo unspecified)
859 s	O=C(NC1CC1)c1ccc(OCC2CCN(C(=O)C3(c4ccccc4)CC3)CC2)cc1
1250 s	Cc1ccc(F)c(NC(=O)c2cc(C(C)C)n3nccc3n2)c1
636 s	COc1ccc(-c2nc(C)cc(C)c2CNS(=O)(=O)c2ccc(C#N)cc2)cc1
843 s	C=Cc1ccc(Cn2ccn(-c3cccc(Cl)c3C)c(=O)c2=O)cc1
560 s	CCCC(=O)Nc1ccc2nc(N3CCN(CC)CC3)cc(C)c2c1
551 s	CCN1CCN(C(=O)C2CCN(S(=O)(=O)c3ccc4c(c3)sc(=O)n4C)CC2)CC1

RP-LC retention time	Compound
608 s	COc1ccc(CN(C)Cc2cc(=O)n3ccc(C)cc3n2)cc1
696 s	Cc1ccc(NC(=O)C2(C)CCCCC(=O)N2)cc1 (stereo unspecified)
783 s	Cc1cc(C)c(CNC(=O)c2cn3ccccc3n2)c(C)c1
650 s	CCOC(=O)c1ccc(NC(=O)CN2CC(c3nc(-c4cccc(Cl)c4)no3)C2)cc1
878 s	COc1ccc(CNC2=NCCNC23CCN(S(=O)(=O)c2ccc(CC(C)C)cc2)CC3)cc1
809 s	O=C(NCc1cccs1)c1ccc(Cn2ccnc2)cc1
635 s	CCCn1cnc2cc(CNS(=O)(=O)c3ccc(F)cc3)ccc21
613 s	CC(=O)N1CCc2cc(N3CC(C(=O)NC(C)C)CC3=O)ccc21 (stereo unspecified)
1000 s	CCN1C(=O)COc2ccc(-c3nc(NC(=O)c4ccccc4Cl)sc3C)cc21
942 s	COC(=O)C1=CN(c2cccc(OC)c2)c2cc(Br)ccc2S1(=O)=O
652 s	Cc1c(NC(=O)c2ccc([N+](=O)[O-])cc2Cl)c(=O)n(-c2ccccc2)n1C
863 s	O=C(C1CCCC1)N1CCC(c2noc(-c3ccncc3)n2)C1 (stereo unspecified)
733 s	Cn1nccc1-c1cccc(-c2noc(CNC(=O)c3ccco3)n2)c1
598 s	CCOC(=O)c1cc(S(=O)(=O)N2CCCC2C(=O)NCc2cccnc2)cn1C (stereo unspecified)
1110 s	CCCOc1c(C(=O)OC)sc2ccc(NC(=O)c3cc(-c4cccs4)[nH]n3)cc12
591 s	O=C(Cn1c(=O)oc2ccccc21)N1C[C@@H](CO)[C@H](c2ccccn2)C1
748 s	O=C(c1ccc2cc[nH]c2c1)N1CCN(c2cc(-c3ccccc3)[nH]n2)CC1
1200 s	COc1ccc2cccc(NC(=O)c3ccc(F)c(F)c3)c2n1
855 s	Cc1nc(-c2ccccc2)c(-c2ccncc2)o1
1190 s	CCCCCC(=O)Nc1nc(-c2ccc(C)cc2C)cs1
554 s	CCN1CCN(CCCNC(=O)c2ccc3c(c2)N(C)C(=O)C2CCCCN32)CC1 (stereo unspecified)
574 s	O=C(NCCOc1cccc2cccnc12)c1cccc(-n2cnnn2)c1
1030 s	CC(C)c1nc(N(C)Cc2ccccc2)ncc1C(=O)O

RP-LC retention time	Compound
688 s	CCCC(NC(=O)c1ccccc1)C(=O)Nc1nc2ccccc2[nH]1 (stereo unspecified)
832 s	O=C(Cn1cccc1-c1nnc(C2CCC2)o1)NCc1ccc(F)cc1
967 s	COCCn1cc2c3c(cccc31)CN(C(=O)Cc1c(F)cccc1Cl)CC2
912 s	Cc1nc(-c2cn(C(C)C)c3ncccc23)sc1C(=O)NCc1ccco1
1240 s	CCOc1ccc(S(=O)(=O)N2CCC(c3noc(-c4ccc(C)cc4)n3)CC2)cc1
957 s	CCN1C(=O)c2cc(S(=O)(=O)Nc3ccc(F)cc3)ccc2Oc2cccnc21
597 s	CCC(=O)N(C)CCc1noc(-c2ccc(C(=O)NCCN(CC)CC)cc2)n1
720 s	CCCn1cc(CCNS(=O)(=O)CCC)c2cccnc21
902 s	CCn1cc(-c2nc(C)c(C(=O)NCc3ccc(OC)cc3)s2)c2cccnc21
734 s	CCCn1ncc(N2CCC(C(=O)N3CCC(C)CC3)CC2)cc1=O
722 s	Cc1ccc(C)c(CNC(=O)C2CCN(c3cnc4nccnc4c3)CC2)c1
1060 s	Cc1sc(NC(=O)CCC2CCCCC2)nc1-c1ccc2c(c1)NC(=O)CO2
927 s	Cn1cc(C2=CCN(S(=O)(=O)c3ccccc3)CC2)c2cccnc21
1110 s	Cc1ccc(C(=O)NCc2nc(-c3ccc(-c4csc(C5CC5)n4)cc3)no2)cc1
592 s	CCN1CCN(CCCNC(=O)C2CCCN(c3nnc(-n4c(C)ccc4C)s3)C2)CC1 (stereo unspecified)
645 s	CNC(=O)c1ccc(-c2nc3cc(NS(=O)(=O)c4ccc(F)cc4F)ccc3n2C)cc1
1050 s	Cc1cc(Cl)ccc1OCc1nc(-c2ccc3c(c2)nnn3CCC(=O)N2CCCC2)no1
630 s	CCCN(C(=O)Nc1ccccc1C(=O)OCC)c1nc(-c2ccc(C3CCCCC3)cc2)cs1
860 s	CCCCc1ccc(NC(=O)CSc2ccc(N3CCCC(C(=O)NCCC)C3)nn2)cc1 (stereo unspecified)
848 s	CC1Oc2ccc(S(=O)(=O)N3CCC(C(=O)N4CCN(c5ccccc5)CC4)CC3)cc2NC1=O (stereo unspecified)
740 s	CCCc1nc(NCc2ccc(OC)c(OC)c2)ncc1C(=O)O
920 s	CCOC(=O)c1c(C)c(C(=O)CN(CC2CCCO2)C(=O)c2cccc(F)c2)c(C)n1C (stereo unspecified)
861 s	COc1ccc(OCC(=O)Nc2ccc3c(c2)N(C(=O)c2ccco2)CCC3)cc1

RP-LC retention time	Compound
631 s	CC(C)OCCCNC(=O)COc1ccccc1-c1nnc(-c2ccccc2)o1
695 s	CC(=O)Nc1nsc(N2CCC(C(=O)N3CCN(c4ccccc4F)CC3)CC2)n1
665 s	Cc1c(CNCCCN2CCCC2=O)c(C(=O)O)c(C)n1Cc1cccc(Cl)c1
693 s	Cc1nc(CC(=O)NCc2ccc(F)cc2F)sc1C(=O)NC1CC1
1090 s	CCc1noc(C2(NC(=O)C(CC)c3ccccc3)CCCCC2)n1 (stereo unspecified)
761 s	Cc1cccc(NC(=O)Cn2ccc3ccn(C)c3c2=O)c1C
1280 s	CCCCn1c(=O)c2ccccc2n(Cc2nc(-c3cccc(Br)c3)no2)c1=O
605 s	COc1ccc(-c2cc3c4nnc(CCC(=O)N5CCN(c6ccccn6)CC5)n4ccn3n2)cc1
740 s	CN1CC2(CCCC2)N(C(=O)COc2ccc(F)cc2)CC1=O
571 s	CCN1CCN(C(=O)CN2C(=O)COc3ccc(C(=O)N4CCCC4)cc32)CC1
370 s	CNc1cc(NS(=O)(=O)c2ccc(N)cc2)nc(NC)n1
1200 s	CCOC(=O)c1noc2nc(C)nc(Nc3ccc(Cl)cc3)c12
894 s	COc1ccc(N2CCN(c3cc(SCC(=O)Nc4cccc(OC)c4)ncn3)CC2)cc1
700 s	Cc1ccc2c(c1)N(CCCC(=O)N1CCN(c3cc(=O)n(C)c(=O)n3C)CC1)C(=O)CO2
782 s	O=C(Cn1cc(S(=O)(=O)N2CCCC2)ccc1=O)N1CCCc2ccccc21
778 s	CCCN(CCC)C(=O)C1COC2(CCN(C(=O)c3ccco3)CC2)N1C(=O)c1ccccc1 (stereo unspecified)
1010 s	COc1cc(NC(=O)c2csc(-c3cn(C)c4ncccc34)n2)cc(OC)c1
888 s	O=C(CSc1nnc(NC(=O)c2c(F)cccc2Cl)s1)c1ccccc1
712 s	COc1ccc(NC(=O)Cn2nc(C(=O)N3CCOCC3)c3ccccc32)cc1
943 s	Cc1cc(C)n(-c2ccc(C(=O)NCc3cc(F)cc(F)c3)cn2)n1
692 s	Cc1cccc(C)c1NC(=O)N(C)CC1CCOCC1

Compound	RP-LC retention time
CCc1ccc(NC(=O)c2cn(CC)c3ncccc23)cc1	962 s
